Data reported in patent publication US20250346621A1, “ASCAROSIDE SALTS” (Ascribe Bioscience Inc., priority 2022, published 2025).

Test system: Bipolaris sorokiniana
Experiment: greenhouse-based plant pathogen assay: protection of wheat plants from Bipolaris sorokiniana damage
Assay type: in vivo
Conditions: two-week-old wheat plants sprayed with 1 μM, inoculated 24 h after treatment, symptoms quantified ten days after inoculation; compared with un-modified ascr #18; *P≤0.04
Method: The efficacy of the zinc salt of ascr #18 was compared to free ascr #18 in a greenhouse-based plant pathogen assay. Two-week-old wheat plants were sprayed with a solution containing 1 μM ascr #18, or 1 μM of the zinc salt (ascr #18)2Zn. 24 h after treatment, the plants were inoculated with spores of Bipolaris sorokiniana (causal agent of root rot and brown spot blotch). Disease symptoms were quantified ten days after inoculation by measuring the symptomatic area on the leaves.

CC(CCCCCCCCC(=O)[O-])OC1OC(C)C(O)CC1O.CC(CCCCCCCCC(=O)[O-])OC1OC(C)C(O)CC1O.[Zn+2] (stereo not shown) [(ascr #18)2Zn]
protection against pathogen damage (symptomatic area on the leaves): better protection against pathogen damage than un-modified ascr #18
